This data set in a line: GHS categories as the set defines them, by LD50: 1 up to 5, 2 up to 50, 3 up to 300, 4 up to 2000, 5 above 2000 mg/kg. The conditions noted are these: rat; in vivo; po.

Regarding `CNC(=O)C(=NNc1ccc(OC)cc1[N+](=O)[O-])C(C)=O`, the GHS category is 5.

Take `CC(C)=CC(C)(C)CC(C)(C)C`: the GHS category came out at 5.

As to `CCN1CCN(C(=O)N[C@@H](C(=O)N[C@@H]2C(=O)N3C(C(=O)O)=C(CSc4nnnn4C)CS[C@H]23)c2ccc(O)cc2)C(=O)C1=O`, the GHS category is 5.

In turn, `CCCCCCCCCCCCCCCCCC(=O)OCCO` returned a GHS category of 5.

Take `CCCCCCCCOC(=O)c1ccc(C(=O)OCCCCCCCC)cc1`: the GHS category is 5.

As for `CCC(C)(Oc1ccc(C2(c3ccc(OC(C)(CC)C(=O)O)cc3)CCCCC2)cc1)C(=O)O` (configuration not stated), the GHS category is on record as 5.

`Cc1ccc2[nH]c3cc4c(=O)c5cc(C)ccc5[nH]c4cc3c(=O)c2c1`: the GHS category was 5.

`C=CC(=C)CCC=C(C)C` came in with a GHS category of 5.

`O=C(c1ccc(Cl)c(Cl)c1)c1ccccc1-c1ncc[nH]1` registered a GHS category of 4.

In turn, `Clc1cc(Cl)c2oc(C3(Cn4cncn4)OCCCO3)cc2c1` displayed a GHS category of 4.

`CCCCCCCCNC(=O)c1cnc2cccc(C)n2c1=O` came in with a GHS category of 3.

The compound `CCCC(=O)NC(C)C(=O)O` (configuration not stated) gave a GHS category of 5.

`CC(=O)C(=O)CC(C)C` gave a GHS category of 5.

For `CCCCCCCCCCCCCCCC(=O)OCC(CC)CCCC` (configuration not stated), the GHS category is 5.

For `N#Cc1c[nH]cc1-c1cccc2c1OC(F)(F)O2`, the GHS category came out at 5.

Consider `CCOC(/C=C(\C)CCC=C(C)C)OCC`, for which the GHS category stood at 5.

The compound `CCCCCCCCCCCCCCOC(=O)Cl` returned a GHS category of 5.

On to `O=C1c2c(Cl)c(Cl)c(Cl)c(Cl)c2C(=O)C1c1ccc2cccc(N3C(=O)c4c(Cl)c(Cl)c(Cl)c(Cl)c4C3=O)c2n1`, for which the GHS category amounted to 5.

As for `CCCCCCCCCCCCCCC`, the GHS category is listed as 5.

In the case of `CS(=O)(=O)c1ccc(O)c(Cl)c1`, the GHS category stood at 4.

Compound `CC(C)CC(C)(C)C` came in with a GHS category of 5.

Turning to `Oc1cn2c(n1)Nc1ccc(Cl)c(Cl)c1C2`, the GHS category is on record as 4.

The compound `CC1CC(OC(=O)C(C)Oc2ccccc2Cl)CC(C)(C)C1` (configuration not stated) yielded a GHS category of 5.

`CC(C)(c1ccccc1)C(C)(C)c1ccccc1` displayed a GHS category of 5.

`COC(=O)C(C)(C)C(=O)OC1=C(C(=O)Nc2ccccn2)N(C)S(=O)(=O)c2cc(Cl)sc21` came in with a GHS category of 2.

On to `CCCCC(CC)C(=O)OOC(C)(C)C` (configuration not stated), for which the GHS category is 5.

Compound `CC(C)(C)OOC(C)(C)c1cccc(C(C)(C)OOC(C)(C)C)c1` had a GHS category of 5.

For the compound `CCN1CCN(C(=O)N[C@@H](C(=O)N[C@]2(OC)C(=O)N3C(C(=O)O)=C(CSc4nnnn4C)CS[C@@H]32)[C@H](C)O)C(=O)C1=O`, the GHS category stood at 5.

As to `CN1C(=O)COc2cc(C(=O)c3ccccc3)ccc21`, the GHS category is listed as 5.

The compound `CC(C)=C1CC[C@H](C)C2=C(C1)[C@@H](C)CC2` had a GHS category of 5.

Compound `CCCOC(=O)c1sc(C(=O)OCCC)c(O)c1O` registered a GHS category of 4.

In turn, `CC(C)c1nc2ccccc2c(=O)n1-c1ccncc1` had a GHS category of 4.

In the case of `C[SiH](C)O[SiH](C)C`, the GHS category is 5.

The compound `C/C=C/C=C/CCCCCCCO` displayed a GHS category of 5.

Compound `CC(C)(C)C1CCC(C2=C(O)c3ccccc3C(=O)C2=O)CC1` (configuration not stated) displayed a GHS category of 5.

`CC=COC` had a GHS category of 5.

`COc1ccc(N(CCCC(=O)O)C(=O)c2ccc(Cl)cc2)cc1` came in with a GHS category of 5.

Take `CCCCCC1C(=O)CCC1CC(C)=O` (configuration not stated): the GHS category is 5.

Regarding `O=C(O)[C@H](CO)Nc1ccc([N+](=O)[O-])cc1`, the GHS category was 5.

For `OCCn1c(C=Cc2nc3ccccc3[nH]2)nc2ccccc21`, the GHS category turned out to be 5.

For the compound `COc1ccc(C(=O)Nc2ccc(C(N)=O)cc2)cc1[N+](=O)[O-]`, the GHS category came out at 5.

`CCCOc1ccc(-c2ccc(C#N)cc2)cc1` came in with a GHS category of 5.

In turn, `CC(C)=CCN(CC=C(C)C)CCC(C#N)c1cccc2ccccc12` (configuration not stated) returned a GHS category of 4.

As to `CO/N=C(\C(=O)N[C@@H]1C(=O)N2C(C(=O)[O-])=C(C[N+]34CCC(C(N)=O)(CC3)CC4)CS[C@H]12)c1nsc(N)n1`, the GHS category came to 5.

As for `C[C@@]12CC[C@@H]3[C@H](CC=C4C[C@H](OS(=O)(=O)O)CC[C@]43C)[C@H]1CCC2=O` (racemic), the GHS category was determined as 5.

`O=C(O)CNC(c1ccccc1)c1ccccc1` gave a GHS category of 4.

In turn, `COc1ccc2c(c1)CCN(c1ccccc1)C2c1ccc(OCc2ccccc2)cc1` (configuration not stated) registered a GHS category of 4.

Take `O=C1C=CC(=NNc2ccc(N=Nc3ccc(-c4ccc(NN=C5C=CC(=O)C(C(=O)O)=C5)cc4)cc3)c3ccc(S(=O)(=O)O)cc23)C=C1`: the GHS category was 5.

On to `C=CC(=O)OCCCOc1ccc(C(=O)Oc2ccc(OC(=O)c3ccc(OCCCOC(=O)C=C)cc3)c(C)c2)cc1`, for which the GHS category is 5.

`CCCCCCC(C)C=O` (configuration not stated): the GHS category was 5.

Turning to `CCCCCCCCCCCCCCCCCCOC(=O)CCc1cc(C(C)(C)C)c(O)c(C(C)(C)C)c1`, the GHS category is reported as 5.

On to `CC(=O)COc1nn(-c2cccc(C(F)(F)F)c2)c2ncccc12`, for which the GHS category is on record as 4.

Turning to `CCOP(=S)(OCC)ON=C(C#N)c1ccccc1Cl`, the GHS category is given as 5.

The compound `Cc1cc(=O)[nH]c2cc(OCCCN3CCC(Cc4ccccc4)CC3)ccc12` showed a GHS category of 4.

Consider `CN1CCN(C2=NS(=O)(=O)c3cc(Cl)ccc3N2)CC1`, for which the GHS category came out at 5.

In turn, `CCN(CC)C(=O)CCCn1nnnc1C` showed a GHS category of 4.

For `FC(C(F)C(F)(F)C(F)(F)F)C(F)(F)F` (configuration not stated), the GHS category worked out at 5.

Compound `C[N+]1(CC(O)COc2cccc3c2CCC(=O)N3)CCC(c2ccccc2)CC1` (configuration not stated) registered a GHS category of 4.

As to `Cc1ncc(CSSCc2cnc(C)c(O)c2CO)c(CO)c1O`, the GHS category is 5.

Compound `CCOC(=O)C1=C(C)NC(C[P+](c2ccccc2)(c2ccccc2)c2ccccc2)=C(C(=O)OCC)C1c1cccc([N+](=O)[O-])c1` (configuration not stated) showed a GHS category of 4.

For the compound `CCCCC(CC)COC(=O)C1CCC(C(=O)OCC(CC)CCCC)CC1` (configuration not stated), the GHS category is recorded as 5.

`CO[C@@H](c1cc(C)c(O)c(C)c1)[C@@H](C)CO` returned a GHS category of 5.

Turning to `Cc1c(Cl)ccc(OC(C)C(O)=Nc2ccccc2)c1Cl` (configuration not stated), the GHS category is 5.

`CCC1(c2ccc(O)cc2)NC(=O)NC1=O` (configuration not stated) had a GHS category of 5.

In turn, `C[C@@H]1CO[C@@](Cn2cncn2)(c2cc3cc(Cl)ccc3o2)O1` showed a GHS category of 4.

Compound `CCCc1nc2ccnn2c(N)c1Cc1ccc(-c2ccccc2-c2nn[nH]n2)cc1` displayed a GHS category of 4.

In turn, `COCCNC(=O)c1ccnc(C(=O)NCCOC)c1` came in with a GHS category of 5.

Compound `CC(CCC(=O)NCCS(=O)(=O)O)C1CCC2C3C(O)CC4CC(O)CCC4(C)C3CCC12C` (configuration not stated) displayed a GHS category of 5.

As to `CC(C)COC(=O)CC(C)C`, the GHS category was 5.

Compound `c1ccc2oc(-c3ccc(-c4nc5ccccc5o4)s3)nc2c1` returned a GHS category of 5.

Regarding `Nc1nc(=O)c2c([nH]1)NCC(CNc1ccc(C(=O)N[C@@H](CCC(=O)O)C(=O)O)cc1)N2C=O` (some centres not stated), the GHS category was 5.

Turning to `C[C@]12CCC(=O)C[C@@H]1CC[C@@H]1[C@@H]2CC[C@@]2(C)[C@H]1CC[C@]2(C)O`, the GHS category worked out at 5.

For the compound `CC(C)C1=CC23CCC4C(C)(C(=O)N5CCNCC5)CCCC4(C)C2CC1C1C(=O)OC(=O)C13` (configuration not stated), the GHS category came to 5.

As to `CC(=O)Nc1cc(NS(=O)(=O)C(F)(F)F)c(C)cc1C`, the GHS category worked out at 5.

`CCCCC(CC)C(=O)OC` (configuration not stated) had a GHS category of 5.

For `CSC(=O)c1cccc2nnsc12`, the GHS category is on record as 5.

In turn, `CCC1(CC)C(=O)N2Cc3ccccc3CN2C1=O` displayed a GHS category of 5.

`CCCCCC(=O)OCCC(C)C` displayed a GHS category of 5.

Regarding `CCCCCCCCCCCC(=O)OCC(COC(=O)CCCCCC)OC(=O)CCCCCCC` (configuration not stated), the GHS category came out at 5.

`CC1=CC(=O)N(Cc2cccc(CN3C(=O)C=C(C)C3=O)c2)C1=O` displayed a GHS category of 5.

`Nc1ccc(N)c(S(=O)(=O)O)c1` displayed a GHS category of 5.

For `CC(=O)Nc1ncc([N+](=O)[O-])s1`, the GHS category amounted to 4.

Compound `CCn1ccc(=O)n2nc(-c3cccs3)cc12` showed a GHS category of 4.

In turn, `CC1(C)C=C(n2ccccc2=O)c2cc(C#N)ccc2C1=O` gave a GHS category of 3.

In the case of `CCCCC(CC)COC(=O)c1ccc(Nc2nc(Nc3ccc(C(=O)NC(C)(C)C)cc3)nc(Nc3ccc(C(=O)OCC(CC)CCCC)cc3)n2)cc1` (configuration not stated), the GHS category was found to be 5.

`CNC(=O)Oc1ccc(N(C)C)c(C)c1` had a GHS category of 2.

On to `Brc1c(Br)c(Br)c(-c2c(Br)c(Br)c(Br)c(Br)c2Br)c(Br)c1Br`, for which the GHS category was 5.

`CC(C)C(=O)OOC(C)(C)C` came in with a GHS category of 5.

Turning to `CCCCCCCCCCOC(C)=O`, the GHS category worked out at 5.

With `Nc1cnn(CCO)c1N`, the GHS category is 5.

Compound `Cc1nc2n(c1/C=N/NC(=O)CN(C)C)CCS2` registered a GHS category of 4.

`Nc1nc2c(ncn2COCCO)c(=O)[nH]1` had a GHS category of 5.

Compound `CCCCCCCCCCCC#N` registered a GHS category of 5.

In turn, `OC[C@H]1NC[C@H](O)[C@@H](O)[C@@H]1O` had a GHS category of 5.

With `CC(=O)OCC(=O)[C@@]1(O)CC[C@H]2[C@@H]3C[C@H](C)C4=CC(=O)C=C[C@]4(C)[C@H]3[C@@H](O)C[C@@]21C`, the GHS category came out at 5.

The compound `CNc1ccc(C(=O)O)cc1[N+](=O)[O-]` showed a GHS category of 5.

In the case of `Nc1ccc(CCc2ccc(N)cc2)cc1`, the GHS category was found to be 5.

As to `CCn1cc(C(=O)O)c(=O)c2cc(F)c(N3CCNCC3)cc21`, the GHS category is 5.

Regarding `Nc1cc(Br)c(O)c2c(O)c3c(N)cc(Br)c(O)c3c(O)c12`, the GHS category came out at 5.

With `CC(CC=O)CCCC(C)(C)O` (configuration not stated), the GHS category is 5.

On to `COc1ccc2[nH]cc(CCNC(C)=O)c2c1`, for which the GHS category is recorded as 5.

`CCC(=O)O[C@]1(C(C)=O)CC[C@H]2[C@@H]3CCC4=CC(=O)C=C[C@]4(C)[C@H]3[C@@H](O)C[C@@]21C` yielded a GHS category of 5.

These data come from the CATMoS acute toxicity set (Mansouri et al. 2021).
